Source: patent US20100197717A1, “COMBINATION OF A 5HT7 RECEPTOR LIGAND AND AN OPIOID RECEPTOR LIGAND” (priority 2007, published 2010)
Where a name gives a salt, the structure may show the parent alone. Read-outs that look alike come from different tables or passages of the source.

How the values were obtained:
Male CD1 mice [1] = assay: animal or person; conditions: Mus musculus, sc
Experimental: Male CD1 mice aged from 6 to 8 weeks old were used in these studies. Animals were housed in groups of five, provided with food and water ad libitum and kept in controlled laboratory conditions with the temperature maintained at 21±1° C. and light in 12 h cycles (on at 07:00 h and off at 19:00 h). Experiments were carried out in a soundproof and air-regulated experimental room. The number of mice ranged from 8 to 16 per group in each individual experiment.
All the compounds were dissolved in physiological saline and administered in a volume of 5 ml/kg of body weight through the subcutaneous (s.c.) route. When compounds were co-administered, they were injected s.c. opposite flanks of the mice. The doses of drugs refer to their salt forms.
The analgesic activity of the inventive active substance combination is determined in male CD1 following and adapting the description in the publication of G. Woolfe and A. D. MacDonald, J. Pharm.
(§1) The mice were kept on the hot plate for no longer than 450 seconds in order to avoid the development of cutaneous lesions. The vehicle, the active substances and the inventive active substance combination to be tested were administered—sometimes in differing concentrations—by s.c. injection to different groups of mice. 0.5 hours after the administration the animals are put onto the hot plate and the time is measured until they show signs of pain, divided by Fore Paw Licking (FPL), Hind Paw Licking (HPL) and Jumping, to allow conclusions on differentiations of pain types through the different pain symptoms/signs of pain. The analgesic efficacy of the active substances or active substance combination is calculated on the basis of the values obtained for the comparison group of mice to which is only administered the vehicle (baseline). By comparing to baseline (defined as 0% analgesia) and to a failure of pain signs (defined as 100% analgesia) Percentage of analgesia was determined. In some cases based on this calculation and with different concentrations of the active substances or active substance combination ED50 values were determined.

Male CD1 mice [2] = conditions: day 5, morphine 4 mg/kg alone (vs Non-Tolerant) or + Chemical Example 1 10 mg/kg (vs morphine only)
Experimental: as §1
Male CD1 Mice were divided in 2 groups, the group receiving s.c. injections of morphine in high doses to develop tolerance (hereinafter called Tolerants), and the group receiving only vehicle (called Non-Tolerants). The following treatment scheme was followed:
The mice were placed 30 minutes after injection on the hot plate heated to 50° C. The signs of pain shown were divided by Fore Paw Licking (FPL), Hind Paw Licking (HPL) and Jumping and measured/counted. The Baseline was determined based on saline injection. Significance values were determined vs. respective “non tolerant” group, the “Morphine-tolerant group” or the “Morphine-non tolerant group” with *** p<0.001 vs. respective “non tolerant” group, # # # p<0.001 vs. “Morphine-tolerant group” and α α α p<0.001 vs. “Morphine-non tolerant group” (Newman-Keuls Multiple Comparison Test post-ANOVA).

Male CD1 mice [3] = conditions: day 5; morphine 4 mg/kg alone (vs Non-Tolerant) or + Chemical Example 1 10 mg/kg (vs morphine only); FIG. 12
Experimental: Briefly, the animals (male CD1 mice) were restrained in a Plexiglas tube and placed on the tail flick apparatus (LI 7100, Letica, S. A., Spain). A noxious beam of light was focussed on the tail, and the tail flick latency was recorded automatically to the nearest 0.1 s. The intensity of the radiant heat source was adjusted to yield baseline latencies between 2 and 3 s; this intensity was never changed and any animal whose baseline latency was outside the pre-established limits was excluded from the experiments. In order to minimise injury in the animals, a cut-off time of 10 s was used. The animals received an s.c. injection of the vehicle (saline), drug or drug combination under study, and tail flick latencies were measured and are measured at 45 min after drug or vehicle administration. Baseline tail flick latencies were recorded after saline/vehicle injection. By comparing to baseline (defined as 0% analgesia) and to a failure of pain reaction/tail flick (defined as 100% analgesia) Percentage of analgesia was determined.
Male CD1 Mice were divided in 2 groups, the group receiving s.c. injections of morphine in high doses to develop tolerance (hereinafter called Tolerants), and the group receiving only vehicle (called Non-Tolerants). […]
The mice were placed 45 minutes after injection in the tail-flick apparatus. The Baseline was determined based on saline injection. […]

[4] = biological target: T1, Cloned Human Serotonin Receptor, Subtype 7 (h5HT7) (Homo sapiens, UniProt P34969); assay: Radioligand binding 5HT7
T1 construct: purchased PerkinElmer 6120512; host or cells: CHO cells
Experimental: Radioligand binding assays were performed using the Cloned Human Serotonin Receptor, Subtype 7 (h5HT7), expressed in CHO cells, coated on Flashplate (Basic FlashPlate Cat.: SMP200) from PerkinElmer (Cat.: 6120512). The protocol assay was essentially the recommended protocol in the Technical Data Sheet by PerkinEmer Life and Analytical Sciences. The Mass membrane protein/well was typically 12 μg and the Receptor/well was about 9-10 fmoles. The Flashplate were let equilibrate at room temperature for one hour before the addition of the components of the assay mixture. The binding buffer was: 50 mM Tris-HCl, pH 7.4, containing 10 mM MgCl2, 0.5 mM EDTA and 0.5% BSA. The radioligand was [^125I]LSD at a final concentration of 0.82 nM. Nonspecific binding was determined with 50 μM of Clozapine. The assay volume was 25 μl. TopSeal-A were applied onto Flashplate microplates and they were incubated at room temperature for 240 minutes in darkness. The radioactivity were quantified by liquid scintillation spectrophotometry (Wallac 1450 Microbeta Trilux) with a count delay of 4 minutes prior to counting and a counting time of 30 seconds per well. Competition binding data were analyzed by using the LIGAND program (Munson and Rodbard, LIGAND: A versatile, computerized approach for characterization of ligand-binding systems. Anal. Biochem. 107: 220-239, 1980) and assays were performed in triplicate determinations for each point.

Male CD1 mice [5] = assay: Tail Flick Test; assay type: in vivo
5-HT6 = 5-HT6 (Homo sapiens, UniProt P50406); assay: 5-HT6 inhibition; assay type: binding; conditions: 10^−7M; as dihydrochloride; read-out: 5-HT6 inhib. (10^−7M) (%)
5HT7 receptor = 5HT7 receptor (Homo sapiens, UniProt P34969); conditions: statement in the definitions; cited from earlier work
[6] = read-out: 5-HT7 %-Inhib. (10^−6 M)
[7] = read-out: 5-HT7 %-Inhib. (10^−7 M)
[8] = read-out: 5-HT7 %-Inhib. (10^−8 M)

T1 sequence (P34969 whole entry): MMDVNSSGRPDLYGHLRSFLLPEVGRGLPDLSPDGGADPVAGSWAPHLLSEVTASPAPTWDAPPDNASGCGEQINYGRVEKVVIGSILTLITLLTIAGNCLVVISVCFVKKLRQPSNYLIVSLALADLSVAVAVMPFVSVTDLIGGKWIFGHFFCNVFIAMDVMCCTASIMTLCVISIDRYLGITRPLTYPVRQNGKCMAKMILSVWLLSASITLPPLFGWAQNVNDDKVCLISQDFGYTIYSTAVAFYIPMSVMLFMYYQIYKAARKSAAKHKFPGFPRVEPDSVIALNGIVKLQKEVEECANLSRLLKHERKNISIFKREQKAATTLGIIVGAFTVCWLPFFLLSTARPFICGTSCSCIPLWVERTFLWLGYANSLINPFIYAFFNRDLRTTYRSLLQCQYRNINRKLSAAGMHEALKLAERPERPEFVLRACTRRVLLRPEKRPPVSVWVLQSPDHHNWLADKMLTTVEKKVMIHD
Sequence of 5-HT6 (P50406 whole entry, species assumed): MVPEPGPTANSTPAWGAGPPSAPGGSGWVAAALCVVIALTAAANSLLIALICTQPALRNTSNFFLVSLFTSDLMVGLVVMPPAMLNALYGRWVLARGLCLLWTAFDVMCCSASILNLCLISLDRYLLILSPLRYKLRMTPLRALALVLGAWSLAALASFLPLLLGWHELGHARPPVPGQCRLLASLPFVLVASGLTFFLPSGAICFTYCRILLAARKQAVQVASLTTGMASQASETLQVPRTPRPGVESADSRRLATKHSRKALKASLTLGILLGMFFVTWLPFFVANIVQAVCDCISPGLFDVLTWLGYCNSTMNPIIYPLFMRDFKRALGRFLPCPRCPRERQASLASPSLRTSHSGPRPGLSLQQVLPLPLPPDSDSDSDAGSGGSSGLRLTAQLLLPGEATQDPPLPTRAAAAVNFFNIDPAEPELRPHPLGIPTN
Sequence of 5HT7 receptor (P34969 whole entry): as the sequence (P34969 whole entry) above

| SMILES | inhibition at 1 µM ([4]; read-out: % Inh (10^−6 M)) | inhibition at 0.1 µM ([4]; read-out: % Inh (10^−7 M)) | inhibition at 0.01 µM ([4]; read-out: % Inh (10^−8 M)) | also measured |
| --- | --- | --- | --- | --- |
| CN1CC[C@]23c4c5ccc(O)c4O[C@H]2[C@@H](O)C=C[C@H]3[C@H]1C5 [morphine] |  |  |  | ED50 (Male CD1 mice [1]; read-out: ED50, Fore Paw Licking (FPL)): 24 mg/kg; ED50 (Male CD1 mice [1]; read-out: ED50, Hind Paw Licking (HPL)): 9.28 mg/kg; ED50 (Male CD1 mice [1]; read-out: ED50, Jumping): 3.19 mg/kg; analgesic effect, FPL, Tolerant group (Male CD1 mice [2]; FIG. 10A): reduced; analgesic effect, HPL, Tolerant group (Male CD1 mice [2]; FIG. 10B): reduced; analgesic effect, Jump, Tolerant group (Male CD1 mice [2]; FIG. 11): reduced; analgesic effect, tail flick, Tolerant group (Male CD1 mice [3]): significantly reduced |
| Cc1nn(C)c(C)c1-c1cccc2c1CC[C@H](N(C)Cc1ccccc1)C2 [Chemical Example F, (2S)-Benzyl-methyl-[5-(1,3,5-trimethyl-1H-pyrazol-4-yl)-1,2,3,4-tetrahydro-naphthalen-2-yl]-amine] |  |  |  | inhibition at 1 µM [4, 6]: 110%; inhibition at 0.1 µM [4, 7]: 44.7%; inhibition at 0.01 µM [4, 8]: 16.3% |
| CN(C)CCc1cccc(-c2cnn(C)c2)c1 [Chemical Example 17, Dimethyl-{2-[3-(1-methyl-1H-pyrazol-4-yl)-phenyl]-ethyl}-amine] | 46% | 16.9% | -1% |  |
| CCCN(CCC)CCc1cccc(-c2ccccc2OC)c1 [Chemical Example 24, [2-(2′-Methoxy-biphenyl-3-yl)-ethyl]-dipropyl-amine] | 92.4% | 37.8% | -1.8% |  |
| CN[C@H]1CCc2c(cccc2-c2c(C)nn(C)c2C)C1 [Chemical Example H, (2S)-Methyl-[5-(1,3,5-trimethyl-1H-pyrazol-4-yl)-1,2,3,4-tetrahydro-naphthalen-2-yl]-amine hydrochloride] |  |  |  | IC50 [4]: 2.3 nM; inhibition at 1 µM [4, 6]: 98.1%; inhibition at 0.1 µM [4, 7]: 97.8%; inhibition at 0.01 µM [4, 8]: 86.1% |
| Cc1nn(C)c(C)c1-c1cccc(CCN(C)C)c1 [Chemical Example 1] |  | 98.6% | 60.8% | effect on efficacy of a low dose of morphine, tail flick (Male CD1 mice [5]; 1.25, 2.5, 5 or 10 mg/kg s.c. + morphine 2 mg/kg (FIG. 9B)): increases in a dose-dependent manner; analgesic effect per se, tail flick (Male CD1 mice [5]; 1.25, 2.5, 5 or 10 mg/kg s.c. alone (FIG. 9B)): devoid of effect per se; inhibition at 0.1 µM (5-HT6): 5.4% |
| COc1ccccc1-c1cccc(CCN(C)C)c1 [Chemical Example 21, [2-(2′-Methoxy-biphenyl-3-yl)-ethyl]-dimethyl-amine] | 95.4% | 69.2% | 20% |  |
| Cc1nn(C)c(C)c1-c1cccc2c1CCC(N(C)C)C2 (stereo not shown) [Chemical Example K, Dimethyl-[5-(1,3,5-trimethyl-1H-pyrazol-4-yl)-1,2,3,4-tetrahydro-naphthalen-2-yl]-amine] |  |  |  | IC50 [4]: 3.9 nM; inhibition at 0.1 µM [4, 7]: 91.3%; inhibition at 0.01 µM [4, 8]: 38.8% |
| Cc1cccc(S(=O)(=O)N(C)[C@H](C)CCN2CCC(C)CC2)c1.Cl [SB-258719, (R)-3,N-Dimethyl-N-(1-methyl-3-(4-methylpiperidin-1-yl)propyl)benzene sulfonamide hydrochloride] |  |  |  | change in the morphine effect, tail flick (Male CD1 mice [5]; SB-258719 10 mg/kg + varying doses of morphine s.c.): did not produce any significant change; effect on potenciation of morphine analgesia exerted by Chemical Example 1, tail flick (Male CD1 mice [5]; morphine 2 mg/kg + Chemical Example 1 10 mg/kg + SB-258719 10 mg/kg s.c. (FIG. 9C)): reverted |
| COc1cccc(OC)c1-c1cccc(CCN(C)C)c1 [Chemical Example 13, [2-(2′,6′-Dimethoxy-biphenyl-3-yl)-ethyl]-dimethyl-amine] | 105% | 60.5% | 54.4% |  |
| CCCN(CCC)C1CCc2cccc(O)c2C1 (stereo not shown) [8-OH-DPAT] |  |  |  | agonist classification on the 5-HT7 receptor (5HT7 receptor): agonist |
| CCCN(CCC)CCc1cccc(-c2c(C)cccc2C)c1 [Chemical Example 12, [2-(2′,6′-Dimethyl-biphenyl-3-yl)-ethyl]-dipropyl-amine] | 93.3% | 92.2% | 43.8% |  |
| CCN(CC)CCc1cccc(-c2c(C)nn(C)c2C)c1 [Chemical Example 3, Diethyl-{2-[3-(1,3,5-trimethyl-1H-pyrazol-4-yl)-phenyl]-ethyl}-amine] | 98.1% | 41.5% | 4.8% |  |
| Cc1nn(C)c(C)c1-c1cccc2c1CC[C@@H](N(C)C)C2 [Chemical Example J, (2R)-Dimethyl-[5-(1,3,5-trimethyl-1H-pyrazol-4-yl)-1,2,3,4-tetrahydro-naphthalen-2-yl]-amine hydrochloride] |  |  |  | inhibition at 1 µM [4, 6]: 59.6%; inhibition at 0.1 µM [4, 7]: 9.6%; inhibition at 0.01 µM [4, 8]: -1.8% |
| CCN(CC)CCc1cccc(-c2c(C)cccc2C)c1 [Chemical Example 11, [2-(2′,6′-Dimethyl-biphenyl-3-yl)-ethyl]-diethyl-amine] | 98.2% | 62.3% | -13.7% |  |
| Cc1cccc(C)c1-c1cccc(CCN(C)C)c1 [Chemical Example 9, [2-(2′,6′-Dimethyl-biphenyl-3-yl)-ethyl]-dimethyl-amine] | 105% | 88.9% | 65.9% |  |
| CCCN(CCC)CCc1cccc(-c2c(C)nn(C)c2C)c1 [Chemical Example 4, Dipropyl-{2-[3-(1,3,5-trimethyl-1H-pyrazol-4-yl)-phenyl]-ethyl}-amine] | 90% | 98.7% | 48.6% |  |
